Source: PubChem BioAssay AID1918944 (Molecular Pharmacology Branch, DTP, NCI, 2023)

Test system: 786-0 complex spheroid viability
Assay: Anticancer human tumor 786-0 cell line growth inhibition;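 also: spheroids exposed to agents for seven days before readout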
Details: for viability, T/C: stronger effect = lower value
In short: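 Drug combinations with the LSD1 inhibitor iadademstat tested on tumor cells co-cultured as spheroids with endothelial cells and mesenchymal stem cells. Concentrations descended in half-log increments from clinical Cmax or 10 microM.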

[1] = curve of first compound, second compound 0.1 µM
[2] = curve of first compound, second compound 0.316 µM
[3] = curve of first compound, second compound 1 µM
[4] = curve of first compound, second compound 3.16 µM
[5] = curve of first compound, second compound 10 µM
[6] = second compound 0.1 µM, first compound 0.00316 µM
[7] = second compound 0.1 µM, first compound 0.01 µM
[8] = second compound 0.1 µM, first compound 0.0316 µM
[9] = second compound 0.1 µM, first compound 0.1 µM
[10] = second compound 0.1 µM, first compound 0.316 µM
[11] = second compound 0.1 µM, first compound 1 µM
[12] = second compound 0.316 µM, first compound 0.00316 µM
[13] = second compound 0.316 µM, first compound 0.01 µM
[14] = second compound 0.316 µM, first compound 0.0316 µM
[15] = second compound 0.316 µM, first compound 0.1 µM
[16] = second compound 0.316 µM, first compound 0.316 µM
[17] = second compound 0.316 µM, first compound 1 µM
[18] = second compound 1 µM, first compound 0.00316 µM
[19] = second compound 1 µM, first compound 0.01 µM
[20] = second compound 1 µM, first compound 0.0316 µM
[21] = second compound 1 µM, first compound 0.1 µM
[22] = second compound 1 µM, first compound 0.316 µM
[23] = second compound 1 µM, first compound 1 µM
[24] = second compound 3.16 µM, first compound 0.00316 µM
[25] = second compound 3.16 µM, first compound 0.01 µM
[26] = second compound 3.16 µM, first compound 0.0316 µM
[27] = second compound 3.16 µM, first compound 0.1 µM
[28] = second compound 3.16 µM, first compound 0.316 µM
[29] = second compound 3.16 µM, first compound 1 µM
[30] = second compound 10 µM, first compound 0.00316 µM
[31] = second compound 10 µM, first compound 0.01 µM
[32] = second compound 10 µM, first compound 0.0316 µM
[33] = second compound 10 µM, first compound 0.1 µM
[34] = second compound 10 µM, first compound 0.316 µM
[35] = second compound 10 µM, first compound 1 µM

Row | Structure (SMILES) | IC50 [1] [nM] | IC50 [2] [nM] | IC50 [3] [nM] | IC50 [4] [nM] | IC50 [5] [nM] | viability, T/C [6] [%] | viability, T/C [7] [%] | viability, T/C [8] [%] | viability, T/C [9] [%] | viability, T/C [10] [%] | viability, T/C [11] [%] | viability, T/C [12] [%] | viability, T/C [14] [%] | viability, T/C [15] [%] | viability, T/C [20] [%] | viability, T/C [21] [%] | viability, T/C [26] [%] | viability, T/C [27] [%] | viability, T/C [32] [%] | viability, T/C [33] [%] | also measured
1 | O=C(C=Cn1cnc(-c2cc(C(F)(F)F)cc(C(F)(F)F)c2)n1)NNc1cnccn1 + NC1CC1c1ccc(-c2cccc(O)c2)cc1 | 37.7 | 34.3 | 40 | 37.5 | 35.6 | 92.5 | 72.2 | 51.1 | 39.1 | 28.9 | 25.2 | 100 | 51.5 | 36.7 | 53.4 | 37.7 | 52.4 | 38.1 | 55 | 39.4 | viability, T/C [13]: 72.5%; viability, T/C [16]: 29.9%; viability, T/C [17]: 26.2%; viability, T/C [18]: 95.7%; viability, T/C [19]: 71.3%; viability, T/C [22]: 31.2%; viability, T/C [23]: 22.7%; viability, T/C [24]: 99.4%; viability, T/C [25]: 73.5%; viability, T/C [28]: 29.1%; viability, T/C [29]: 26.3%; viability, T/C [30]: 108%; viability, T/C [31]: 67.8%; viability, T/C [34]: 29.7%; viability, T/C [35]: 25.4%
2 | CC(C)CC(NC(=O)CNC(=O)c1cc(Cl)ccc1Cl)B1OC(=O)CC(CC(=O)O)(C(=O)O)O1 (stereo not drawn) + NC1CC1c1ccc(-c2cccc(O)c2)cc1 | 14.1 | 14.8 | 14.7 | 13.3 | 9.46 | 93.2 | 55.9 | 33.5 | 16.6 | – | – | 97.7 | 30.5 | 17.1 | 33.2 | 17.4 | 31.4 | 15.6 | 27.4 | 12.4 | viability, T/C (second compound 0.1 µM, first compound 0.000316 µM): 95.1%; viability, T/C (second compound 0.1 µM, first compound 0.001 µM): 106%; viability, T/C (second compound 0.316 µM, first compound 0.000316 µM): 111%; viability, T/C (second compound 0.316 µM, first compound 0.001 µM): 106%; viability, T/C [13]: 59.3%; viability, T/C (second compound 1 µM, first compound 0.000316 µM): 101%; viability, T/C (second compound 1 µM, first compound 0.001 µM): 102%; viability, T/C [18]: 90.5%; viability, T/C [19]: 57.6%; viability, T/C (second compound 3.16 µM, first compound 0.000316 µM): 88.6%; viability, T/C (second compound 3.16 µM, first compound 0.001 µM): 100%; viability, T/C [24]: 88.1%; viability, T/C [25]: 54.6%; viability, T/C (second compound 10 µM, first compound 0.000316 µM): 88%; viability, T/C (second compound 10 µM, first compound 0.001 µM): 89.5%; viability, T/C [30]: 84%; viability, T/C [31]: 45.4%
3 | Nc1ncn(C2CC(O)C(CO)O2)c(=O)n1 (stereo not drawn) + NC1CCC(NC2CC2c2ccccc2)CC1 | > 1000 | > 1000 | > 1000 | > 1000 | 628 | 115 | 117 | 97.1 | 82.6 | 72.8 | 56 | 127 | 95.3 | 92.2 | 96.7 | 82.5 | 82.8 | 82 | 82.6 | 69.6 | viability, T/C [13]: 108%; viability, T/C [16]: 71.4%; viability, T/C [17]: 63.1%; viability, T/C [18]: 118%; viability, T/C [19]: 99%; viability, T/C [22]: 70.1%; viability, T/C [23]: 59%; viability, T/C [24]: 103%; viability, T/C [25]: 117%; viability, T/C [28]: 65.2%; viability, T/C [29]: 52.6%; viability, T/C [30]: 79.2%; viability, T/C [31]: 80.2%; viability, T/C [34]: 58.5%; viability, T/C [35]: 44.6%
4 | COc1cc(Nc2ncc3c(n2)-c2ccc(Cl)cc2C(c2c(F)cccc2OC)=NC3)ccc1C(=O)O + NC1CC1c1ccc(-c2cccc(O)c2)cc1 | 584 | 638 | 431 | 588 | 955 | 96.3 | 86.8 | 69 | 65 | 55.5 | 45.4 | 105 | 77 | 67.1 | 70.3 | 66.9 | 68.5 | 66.1 | 67.9 | 72.2 | viability, T/C [13]: 94.5%; viability, T/C [16]: 55.4%; viability, T/C [17]: 46.4%; viability, T/C [18]: 93.3%; viability, T/C [19]: 83.6%; viability, T/C [22]: 52%; viability, T/C [23]: 42.2%; viability, T/C [24]: 89.7%; viability, T/C [25]: 86.1%; viability, T/C [28]: 56.9%; viability, T/C [29]: 44.7%; viability, T/C [30]: 84.6%; viability, T/C [31]: 77.7%; viability, T/C [34]: 56.7%; viability, T/C [35]: 49.4%
5 | NC1CC1c1ccc(-c2cccc(O)c2)cc1 (stereo not drawn) | – | – | – | – | – | – | – | – | – | – | – | – | – | – | – | – | – | – | – | – | viability, T/C (compound 0.316 µM): 110% [middle of 25 runs]; viability, T/C (compound 10 µM): 89.2% [middle of 25 runs]; IC50 (compound alone, run of 12/07/2021): > 10000 nM
6 | O=C(C=Cn1cnc(-c2cc(C(F)(F)F)cc(C(F)(F)F)c2)n1)NNc1cnccn1 + NC1CCC(NC2CC2c2ccccc2)CC1 | 25.4 | 20.2 | 22.7 | 16.4 | 11.9 | 94.3 | 68.9 | 44.6 | 31.8 | 21 | 17.9 | 97.4 | 42.1 | 30.7 | 42.6 | 34.4 | 43.6 | 31.7 | 37.5 | 35.1 | viability, T/C [13]: 61.9%; viability, T/C [16]: 21.2%; viability, T/C [17]: 18.6%; viability, T/C [18]: 90.8%; viability, T/C [19]: 63.4%; viability, T/C [22]: 21.6%; viability, T/C [23]: 15.7%; viability, T/C [24]: 81%; viability, T/C [25]: 51.6%; viability, T/C [28]: 20.8%; viability, T/C [29]: 14.9%; viability, T/C [30]: 74%; viability, T/C [31]: 48.3%; viability, T/C [34]: 19.9%; viability, T/C [35]: 16.9%
7 | O=C(c1cc(Cc2n[nH]c(=O)c3ccccc23)ccc1F)N1CCN(C(=O)C2CC2)CC1 + NC1CC1c1ccc(-c2cccc(O)c2)cc1 | > 10000 | > 10000 | > 10000 | > 10000 | > 10000 | – | – | 111 | 119 | 107 | 105 | – | 112 | 112 | 111 | 110 | 103 | 105 | 97.3 | 98.8 | viability, T/C (second compound 0.1 µM, first compound 3.16 µM): 97.6%; viability, T/C (second compound 0.1 µM, first compound 10 µM): 80.8%; viability, T/C [16]: 112%; viability, T/C [17]: 109%; viability, T/C (second compound 0.316 µM, first compound 3.16 µM): 98.8%; viability, T/C (second compound 0.316 µM, first compound 10 µM): 81.1%; viability, T/C [22]: 113%; viability, T/C [23]: 108%; viability, T/C (second compound 1 µM, first compound 3.16 µM): 93.3%; viability, T/C (second compound 1 µM, first compound 10 µM): 78.6%; viability, T/C [28]: 103%; viability, T/C [29]: 97.5%; viability, T/C (second compound 3.16 µM, first compound 3.16 µM): 85.9%; viability, T/C (second compound 3.16 µM, first compound 10 µM): 68.4%; viability, T/C [34]: 89.3%; viability, T/C [35]: 90.7%; viability, T/C (second compound 10 µM, first compound 3.16 µM): 72.8%; viability, T/C (second compound 10 µM, first compound 10 µM): 52.9%
